# Patent US20150307554A1, “NTS-POLYPLEX NANOPARTICLES SYSTEM FOR GENE THERAPY OF CANCER” (priority 2011, published 2015)
# What was measured:
# MDA-MB-231 cells = test: Internalization of NTS-polyplex via NTSR1 endocytosis with blocking assays, MDA-MB-231; type: cell-based, human; conditions: NTS 1 μM, SR48692 500 nM, sucrose 0.45 M
# Experimental: (§1) The cytoplasm was stained with calcein AM (green). Cells were analyzed by confocal multi spectral imaging system TCS-SPE (Leica Mycrosystems, Wetzlar, Germany). The fluorescence was detected under the following conditions Ex/Em: 405/430 nm for the blue channel with UV light; 488/512-573 nm for the green channel with an argon laser; and 563/563-544 for the red channel with a Helium-Neon laser. We obtained 10 to 20 consecutive optical sections of 1 μm apart in the z series.
# MCF7 cells = test: Internalization of NTS-polyplex via NTSR1 endocytosis with blocking assays, MCF7; type: cell-based, human; conditions: NTS 1 μM, SR48692 500 nM, sucrose 0.45 M
# Experimental: as §1
SMILES,blocking of NTS-polyplex internalization (MDA-MB-231 cells),blocking of NTS-polyplex internalization (MCF7 cells)
COc1cccc(OC)c1-c1cc(C(=O)NC2(C(=O)O)C3CC4CC(C3)CC2C4)nn1-c1ccnc2cc(Cl)ccc12 (stereo not shown) [SR48692],prevented the entrance of NTS-polyplex,prevented the entrance of NTS-polyplex
OC[C@H]1O[C@@](CO)(O[C@H]2O[C@H](CO)[C@@H](O)[C@H](O)[C@H]2O)[C@@H](O)[C@@H]1O [sucrose],blocked,blocked
